From ChEMBL document CHEMBL1201862, “PubChem BioAssay data set” (2004)
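Growth conditions: 96-well plates. Treatment: test compound, 48 hours, 5 concentrations. Analysis: linear interpolation between bracketing concentrations; unreached endpoints set to highest concentration. Here, GI50 denotes the concentration required for 50% inhibition of growth.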 Active and inactive are the calls of the source. No stated cut-off is given here; in the data, active = GI50 up to about 1.1 µM and inactive = higher.

Key:
Experiment in all cases: DTP human tumour cell line panel, 48 h
OVCAR-8 = system: OVCAR-8
MDA-MB-231 = system: MDA-MB-231
NCI-H23 = system: NCI-H23
SW-620 = system: SW-620
U-251 = system: U-251
K562 = system: K562
RPMI-8226 = system: RPMI-8226
MCF7 = system: MCF7
SF-539 = system: SF-539
HL-60 = system: HL-60
M14 = system: M14
LOX IMVI = system: LOX IMVI
MDA-MB-435 = system: MDA-MB-435
786-0 = system: 786-0
A498 = system: A498
IGROV-1 = system: IGROV-1
TK-10 = system: TK-10
SF-295 = system: SF-295
SF-268 = system: SF-268
DU-145 = system: DU-145

Measured: GI50

COC(=O)CN1CCN(c2cccc3c2CCCC3)CC1
inactive: OVCAR-8 > 100 µM | MDA-MB-231 71.9 µM | NCI-H23 13.9 µM | SW-620 > 100 µM | U-251 > 100 µM | K562 90.2 µM | RPMI-8226 25.1 µM | MCF7 37 µM | SF-539 > 100 µM | HL-60 35.2 µM | M14 19.4 µM | LOX IMVI 43.5 µM | MDA-MB-435 40.5 µM | 786-0 36.2 µM | A498 > 100 µM | IGROV-1 > 100 µM | TK-10 93.8 µM | SF-295 > 100 µM

O=C(CC(=O)C1CCOC1=O)C(=O)Nc1ccc(Cl)cc1Cl (configuration not stated)
inactive: OVCAR-8 > 100 µM | NCI-H23 > 100 µM | SW-620 > 100 µM | U-251 > 100 µM | K562 > 100 µM | RPMI-8226 > 100 µM | SF-268 > 100 µM | SF-539 > 100 µM | HL-60 > 100 µM | M14 > 100 µM | LOX IMVI > 100 µM | 786-0 > 100 µM | A498 > 100 µM | IGROV-1 > 100 µM | TK-10 > 100 µM | SF-295 > 100 µM

CC(C)CCn1nc(N)c2nc3ccccc3nc21
inactive: OVCAR-8 > 100 µM | NCI-H23 > 100 µM | SW-620 67.6 µM | U-251 > 100 µM | K562 57.1 µM | RPMI-8226 > 100 µM | MCF7 72.8 µM | SF-268 > 100 µM | SF-539 > 100 µM | HL-60 41.6 µM | M14 > 100 µM | LOX IMVI > 100 µM | MDA-MB-435 > 100 µM | 786-0 > 100 µM | A498 > 100 µM | IGROV-1 > 100 µM | TK-10 > 100 µM | SF-295 > 100 µM

O=C(NC(CO)CO)c1ccc2cc(C(=O)N3CC(CCl)c4ccc([N+](=O)[O-])cc43)[nH]c2c1 (configuration not stated)
inactive: OVCAR-8 > 100 µM | MDA-MB-231 66.1 µM | NCI-H23 > 100 µM | SW-620 > 100 µM | U-251 > 100 µM | K562 > 100 µM | MCF7 > 100 µM | SF-268 > 100 µM | SF-539 > 100 µM | HL-60 > 100 µM | M14 > 100 µM | LOX IMVI > 100 µM | MDA-MB-435 > 100 µM | 786-0 > 100 µM | IGROV-1 > 100 µM | TK-10 > 100 µM | SF-295 > 100 µM | DU-145 > 100 µM

COc1cc(COC(=O)N2CCCCC2C(=O)O)c([N+](=O)[O-])cc1OC (configuration not stated)
inactive: OVCAR-8 > 100 µM | NCI-H23 > 100 µM | SW-620 > 100 µM | U-251 > 100 µM | K562 > 100 µM | RPMI-8226 > 100 µM | MCF7 > 100 µM | SF-268 > 100 µM | SF-539 > 100 µM | HL-60 > 100 µM | M14 > 100 µM | MDA-MB-435 > 100 µM | 786-0 > 100 µM | A498 > 100 µM | IGROV-1 > 100 µM | TK-10 > 100 µM | SF-295 > 100 µM | DU-145 > 100 µM

Oc1cc(-c2ccccc2)nc2cc3c(cc12)OCO3
inactive: OVCAR-8 14.5 µM | MDA-MB-231 85.5 µM | NCI-H23 8.55 µM | SW-620 6.15 µM | U-251 29.2 µM | K562 4.06 µM | RPMI-8226 11 µM | MCF7 36.8 µM | SF-268 3.83 µM | SF-539 6.05 µM | HL-60 4.11 µM | M14 7.36 µM | LOX IMVI 11.6 µM | 786-0 9.95 µM | A498 15.1 µM | IGROV-1 13.6 µM | TK-10 39 µM | SF-295 8.57 µM | DU-145 79.4 µM
